Patent US20140288052A1, “SUBSTITUTED BICYCLIC AZA-HETEROCYCLES AND ANALOGUES AS SIRTUIN MODULATORS” (GlaxoSmithKline, LLC, priority 2011, published 2014)

How the values were obtained:
[1] = target: T1, SIRT1 (Homo sapiens, UniProt Q96EB6); assay: TAMRA based mass spectrometry assay of SIRT1 deacetylase activation; assay type: biochemical; conditions: TAMRA peptide substrate; for TAMRA EC1.5 (μM): concentration that results in 150% activation of SIRT1; for TAMRA % Fold Act: percent maximum fold activation relative to control (100%)
T1 sequence (Q96EB6 1-747): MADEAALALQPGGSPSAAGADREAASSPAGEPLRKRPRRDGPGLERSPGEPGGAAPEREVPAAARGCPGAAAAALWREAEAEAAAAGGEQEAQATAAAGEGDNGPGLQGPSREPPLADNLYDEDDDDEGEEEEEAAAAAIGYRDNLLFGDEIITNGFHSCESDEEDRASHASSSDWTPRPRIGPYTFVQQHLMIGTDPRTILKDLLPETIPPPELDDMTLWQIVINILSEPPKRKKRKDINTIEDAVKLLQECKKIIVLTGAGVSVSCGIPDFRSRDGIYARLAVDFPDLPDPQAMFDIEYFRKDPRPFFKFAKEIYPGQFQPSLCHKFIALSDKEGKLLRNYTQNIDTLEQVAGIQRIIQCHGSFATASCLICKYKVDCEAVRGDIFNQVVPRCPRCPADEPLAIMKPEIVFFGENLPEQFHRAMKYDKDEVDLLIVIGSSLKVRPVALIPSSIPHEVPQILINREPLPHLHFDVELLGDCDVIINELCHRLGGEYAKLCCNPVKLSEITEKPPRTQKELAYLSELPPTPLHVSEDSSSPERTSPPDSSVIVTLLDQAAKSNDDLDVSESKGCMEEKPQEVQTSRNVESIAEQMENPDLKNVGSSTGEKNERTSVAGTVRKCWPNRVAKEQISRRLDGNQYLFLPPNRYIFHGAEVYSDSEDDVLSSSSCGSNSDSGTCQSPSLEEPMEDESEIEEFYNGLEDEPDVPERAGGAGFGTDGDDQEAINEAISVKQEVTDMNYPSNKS
Description: (§1) Mass spectrometry based assays were used to identify modulators of SIRT1 activity. The TAMRA based assay utilized a peptide having 20 amino acid residues as follows: Ac-EE-K(biotin)-GQSTSSHSK(Ac)NleSTEG-K(5TMR)-EE-NH2 (SEQ ID NO: 1), wherein K(Ac) is an acetylated lysine residue and Nle is a norleucine. The peptide was labeled with the fluorophore 5TMR (excitation 540 nm/emission 580 nm) at the C-terminus. The sequence of the peptide substrate was based on p53 with several modifications. In addition, the methionine residue naturally present in the sequence was replaced with the norleucine because the methionine may be susceptible to oxidation during synthesis and purification. The Trp based assay utilized a peptide having an amino acid residues as follows: Ac-R-H-K-K(Ac)-W-NH2 (SEQ ID NO: 2).
The TAMRA based mass spectrometry assay was conducted as follows: 0.5 μM peptide substrate and 120 μM βNAD^+ was incubated with 10 nM SIRT1 for 25 minutes at 25° C. in a reaction buffer (50 mM Tris-acetate pH 8, 137 mM NaCl, 2.7 mM KCl, 1 mM MgCl2, 5 mM DTT, 0.05% BSA). The SIRT1 protein was obtained by cloning the SirT1 gene into a T7-promoter containing vector, which was then transformed and expressed in BL21(DE3) bacterial cells. Test compound was added at varying concentrations to this reaction mixture and the resulting reactions were monitored. After the 25 minute incubation with SIRT1, 10 μL of 10% formic acid was added to stop the reaction. The resulting reactions were sealed and frozen for later mass spec analysis. Determination of the amount of deacetylated substrate peptide formed (or, alternatively, the amount of O-acetyl-ADP-ribose (OAADPR) generated) by the sirtuin-mediated NAD-dependent deacetylation reaction allowed for the precise measurement of relative SIRT1 activity in the presence of varying concentrations of the test compound versus control reactions lacking the test compound.
(§2) A control for inhibition of sirtuin activity was conducted by adding 1 μL of 500 mM nicotinamide as a negative control at the start of the reaction (e.g., permits determination of maximum sirtuin inhibition). A control for activation of sirtuin activity was conducted using 10 nM of sirtuin protein, with 1 μL of DMSO in place of compound, to determine the amount of deacetylation of the substrate at a given time point within the linear range of the assay. This time point was the same as that used for test compounds and, within the linear range, the endpoint represents a change in velocity. For the above assay, SIRT1 protein was expressed and purified as follows. The SirT1 gene was cloned into a T7-promoter containing vector and transformed into BL21(DE3). The protein was expressed by induction with 1 mM IPTG as an N-terminal His-tag fusion protein at 18° C. overnight and harvested at 30,000×g. Cells were lysed with lysozyme in lysis buffer (50 mM Tris-HCl, 2 mM Tris[2-carboxyethyl] phosphine (TCEP), 10 μM ZnCl2, 200 mM NaCl) and further treated with sonication for 10 min for complete lysis. The protein was purified over a Ni-NTA column (Amersham) and fractions containing pure protein were pooled, concentrated and run over a sizing column (Sephadex S200 26/60 global). The peak containing soluble protein was collected and run on an Ion-exchange column (MonoQ). Gradient elution (200 mM-500 mM NaCl) yielded pure protein. This protein was concentrated and dialyzed against dialysis buffer (20 mM Tris-HCl, 2 mM TCEP) overnight. The protein was aliquoted and frozen at −80° C. until further use.
Sirtuin-modulating compounds of Formula (I) that activated SIRT1 were identified using the assay described above and are shown below in Table 1. The EC1.5 values represent the concentration of test compounds that result in 150% activation of SIRT1. The EC1.5 values for the activating compounds of Formula (I) are represented by A (EC1.5<1 μM), B (EC1.5 1−25 μM), C (EC1.5>25 μM). […]

[2] = target: T1, SIRT1; assay: Trp mass spectrometry assay of SIRT1 deacetylase activation; assay type: biochemical; conditions: Trp peptide substrate; for TRP EC1.5 (μM): concentration that results in 150% activation of SIRT1; for TRP % Fold Act: percent maximum fold activation relative to control (100%)
Description: as §1
The Trp mass spectrometry assay was conducted as follows. 0.5 μM peptide substrate and 120 μM βNAD^+ were incubated with 10 nM SIRT1 for 25 minutes at 25° C. in a reaction buffer (50 mM HEPES pH 7.5, […], 1 mM DTT, 0.05% BSA). The SIRT1 protein was obtained by cloning the SirT1 gene into a T7-promoter containing vector, which was then expressed in BL21(DE3) bacterial cells and purified as described in further detail below. Test compound was added at varying concentrations to this reaction mixture and the resulting reactions were monitored. After the 25 minute incubation with SIRT1, 10 μL of 10% formic acid was added to stop the reaction. The resulting reactions were sealed and frozen for later mass spec analysis. The relative SIRT1 activity was then determined by measuring the amount of O-acetyl-ADP-ribose (OAADPR) formed (or, alternatively, the amount of deacetylated Trp peptide generated) by the NAD-dependent sirtuin deacetylation reaction in the presence of varying concentrations of the test compound versus control reactions lacking the test compound. The degree to which the test agent activated deacetylation by SIRT1 was expressed as EC1.5 (i.e., the concentration of compound required to increase SIRT1 activity by 50% over the control lacking test compound), and Percent Maximum Activation (i.e., the maximum activity relative to control (100%) obtained for the test compound).
as §2
Sirtuin-modulating compounds of Formula (I) that activated SIRT1 were identified using the assay described above and are shown below in Table 1. […]

TAMRA EC1.5 (μM) [1]	TAMRA % Fold Act [1]	TRP EC1.5 (μM) [2]	TRP % Fold Act [2]	SMILES
C (EC1.5>25 μM)	B (Fold Activation<350%)	C (EC1.5>25 μM)	B (Fold Activation<350%)	O=C(Nc1ccccn1)c1cc(N2CCOCC2)nn2cc(-c3cccc(C(F)(F)F)c3)nc12 [Compound 49]
C (EC1.5>25 μM)	B (Fold Activation<350%)	C (EC1.5>25 μM)	B (Fold Activation<350%)	O=C(Nc1ccncc1)c1cc(N2CCOCC2)nn2cc(-c3cccc(Cl)c3)nc12 [Compound 54]
B (EC1.5 1−25 μM)	A (Fold activation≧350%)	C (EC1.5>25 μM)	B (Fold Activation<350%)	O=C(Nc1ccnc2cc(-c3ccccc3C(F)(F)F)nn12)c1cscn1 [Compound 55]
A (EC1.5<1 μM)	A (Fold activation≧350%)	C (EC1.5>25 μM)	B (Fold Activation<350%)	Cc1nc(C(=O)Nc2ccnc3cc(-c4ccccc4C(F)(F)F)nn23)cs1 [Compound 56]
A (EC1.5<1 μM)	A (Fold activation≧350%)	B (EC1.5 1−25 μM)	B (Fold Activation<350%)	Cc1nc(C(=O)Nc2ccnc3cc(-c4ccccc4C(F)(F)F)nn23)c(C)s1 [Compound 57]
C (EC1.5>25 μM)	B (Fold Activation<350%)	C (EC1.5>25 μM)	B (Fold Activation<350%)	Cc1cnc(C(=O)Nc2ccnc3cc(-c4ccccc4C(F)(F)F)nn23)s1 [Compound 58]

Second part, the compound before the results:

SMILES	TAMRA EC1.5 (μM) [1]	TAMRA % Fold Act [1]	TRP EC1.5 (μM) [2]	TRP % Fold Act [2]
O=C(Nc1cccnc1)c1cc(N2CCOCC2)nn2cc(-c3ccccc3F)nc12 [Compound 40]	C (EC1.5>25 μM)	B (Fold Activation<350%)	C (EC1.5>25 μM)	B (Fold Activation<350%)
O=C(Nc1ccncc1)c1cc(N2CCOCC2)nn2cc(-c3ccccc3F)nc12 [Compound 41]	C (EC1.5>25 μM)	B (Fold Activation<350%)	C (EC1.5>25 μM)	B (Fold Activation<350%)
O=C(Nc1nccs1)c1cc(N2CCOCC2)nn2cc(-c3ccccc3C(F)(F)F)nc12 [Compound 42]	B (EC1.5 1−25 μM)	B (Fold Activation<350%)	C (EC1.5>25 μM)	B (Fold Activation<350%)
Cc1cnc(NC(=O)c2cc(N3CCOCC3)nn3cc(-c4ccccc4C(F)(F)F)nc23)s1 [Compound 43]	A (EC1.5<1 μM)	B (Fold Activation<350%)	C (EC1.5>25 μM)	B (Fold Activation<350%)
O=C(Nc1ccccn1)c1cc(N2CCOCC2)nn2cc(-c3ccccc3C(F)(F)F)nc12 [Compound 44]	B (EC1.5 1−25 μM)	B (Fold Activation<350%)	C (EC1.5>25 μM)	B (Fold Activation<350%)
O=C(Nc1cccnc1)c1cc(N2CCOCC2)nn2cc(-c3ccccc3C(F)(F)F)nc12 [Compound 45]	B (EC1.5 1−25 μM)	A (Fold activation≧350%)	B (EC1.5 1−25 μM)	B (Fold Activation<350%)
O=C(Nc1ccncc1)c1cc(N2CCOCC2)nn2cc(-c3ccccc3C(F)(F)F)nc12 [Compound 46]	A (EC1.5<1 μM)	A (Fold activation≧350%)	C (EC1.5>25 μM)	B (Fold Activation<350%)
O=C(Nc1nccs1)c1cc(N2CCOCC2)nn2cc(-c3cccc(C(F)(F)F)c3)nc12 [Compound 47]	C (EC1.5>25 μM)	B (Fold Activation<350%)	C (EC1.5>25 μM)	B (Fold Activation<350%)
Cc1cnc(NC(=O)c2cc(N3CCOCC3)nn3cc(-c4cccc(C(F)(F)F)c4)nc23)s1 [Compound 48]	C (EC1.5>25 μM)	B (Fold Activation<350%)	C (EC1.5>25 μM)	B (Fold Activation<350%)
